“And” between values parts separate entries of the source, which are not always exact repeats. Equal entries are not always repeated. Numbers after ± are expanded uncertainties.
Settings: Gas, Buoyancy - hydrostatic balance with magnetic suspension - two sinkers

Question: Which results are given for `N#N` [nitrogen]?
Answer: mass density (340.01 K, 11962 kPa): 114.845 ± 0.18 kg/m3 and 114.844 ± 0.18 kg/m3 and 114.842 ± 0.18 kg/m3; mass density (340.01 K, 15961 kPa): 150.241 ± 0.3 kg/m3 and 150.238 ± 0.3 kg/m3 and 150.239 ± 0.3 kg/m3; mass density (340.01 K, 15962 kPa): 150.242 ± 0.3 kg/m3 and 150.24 ± 0.3 kg/m3; mass density (340.01 K, 20072 kPa): 184.447 ± 0.45 kg/m3 [middle of 5 runs]; mass density (340.01 K, 20073 kPa): 184.453 ± 0.45 kg/m3; mass density (340.01 K, 24069 kPa): 215.463 ± 0.61 kg/m3; mass density (340.01 K, 24070 kPa): 215.467 ± 0.61 kg/m3 and 215.465 ± 0.61 kg/m3 and 215.466 ± 0.61 kg/m3; mass density (340.01 K, 28607 kPa): 247.989 ± 0.81 kg/m3 and 247.99 ± 0.81 kg/m3; mass density (340.01 K, 28608 kPa): 247.996 ± 0.81 kg/m3 and 247.999 ± 0.81 kg/m3 and 247.993 ± 0.81 kg/m3; mass density (340.01 K, 33718 kPa): 281.379 ± 1 kg/m3; mass density (340.01 K, 33719 kPa): 281.38 ± 1 kg/m3 and 281.384 ± 1 kg/m3; mass density (340.01 K, 33720 kPa): 281.389 ± 1 kg/m3 and 281.386 ± 1 kg/m3; mass density (359.99 K, 5385.3 kPa): 49.7747 ± 0.036 kg/m3; mass density (359.99 K, 5385.4 kPa): 49.7738 ± 0.036 kg/m3 and 49.7746 ± 0.036 kg/m3; mass density (359.99 K, 5385.5 kPa): 49.7747 ± 0.036 kg/m3 and 49.7744 ± 0.036 kg/m3; mass density (359.99 K, 11539 kPa): 104.182 ± 0.15 kg/m3; mass density (359.99 K, 23337 kPa): 197.246 ± 0.52 kg/m3; mass density (360 K, 11538 kPa): 104.181 ± 0.15 kg/m3 and 104.18 ± 0.15 kg/m3; mass density (360 K, 11539 kPa): 104.182 ± 0.15 kg/m3 and 104.181 ± 0.15 kg/m3; mass density (360 K, 23336 kPa): 197.238 ± 0.52 kg/m3 and 197.239 ± 0.52 kg/m3 and 197.241 ± 0.52 kg/m3; mass density (360 K, 23337 kPa): 197.243 ± 0.52 kg/m3; mass density (379.99 K, 5685.7 kPa): 49.5887 ± 0.036 kg/m3 [middle of 4 runs]; mass density (379.99 K, 5685.8 kPa): 49.589 ± 0.036 kg/m3 and 49.5891 ± 0.036 kg/m3; mass density (379.99 K, 12228 kPa): 103.776 ± 0.15 kg/m3 and 103.778 ± 0.15 kg/m3; mass density (380 K, 12228 kPa): 103.775 ± 0.15 kg/m3 and 103.776 ± 0.15 kg/m3; mass density (380 K, 24868 kPa): 196.492 ± 0.53 kg/m3 and 196.493 ± 0.53 kg/m3 and 196.491 ± 0.53 kg/m3; mass density (380 K, 24869 kPa): 196.497 ± 0.53 kg/m3 and 196.496 ± 0.53 kg/m3 and 196.492 ± 0.53 kg/m3; mass density (399.97 K, 499.5 kPa): 4.2016 ± 0.0033 kg/m3 and 4.2015 ± 0.0033 kg/m3 and 4.2014 ± 0.0033 kg/m3; mass density (399.97 K, 999 kPa): 8.3914 ± 0.0037 kg/m3 and 8.3913 ± 0.0037 kg/m3 and 8.3912 ± 0.0037 kg/m3; mass density (399.97 K, 1998 kPa): 16.7314 ± 0.0087 kg/m3 and 16.7313 ± 0.0087 kg/m3 and 16.7315 ± 0.0087 kg/m3; mass density (399.97 K, 3996 kPa): 33.2413 ± 0.018 kg/m3 and 33.241 ± 0.018 kg/m3 and 33.2411 ± 0.018 kg/m3; mass density (399.97 K, 5994.1 kPa): 49.4948 ± 0.036 kg/m3 and 49.4949 ± 0.036 kg/m3 and 49.4947 ± 0.036 kg/m3; mass density (399.99 K, 5983.6 kPa): 49.4072 ± 0.036 kg/m3 and 49.4075 ± 0.036 kg/m3; mass density (399.99 K, 5983.7 kPa): 49.4089 ± 0.036 kg/m3 and 49.4079 ± 0.036 kg/m3; mass density (399.99 K, 5983.8 kPa): 49.4087 ± 0.036 kg/m3 and 49.4092 ± 0.036 kg/m3; mass density (399.99 K, 12911 kPa): 103.383 ± 0.16 kg/m3; mass density (399.99 K, 12912 kPa): 103.387 ± 0.16 kg/m3; mass density (400 K, 12911 kPa): 103.385 ± 0.16 kg/m3 and 103.384 ± 0.16 kg/m3 and 103.383 ± 0.16 kg/m3; mass density (400 K, 12912 kPa): 103.388 ± 0.16 kg/m3; mass density (400 K, 26381 kPa): 195.763 ± 0.53 kg/m3 and 195.766 ± 0.53 kg/m3; mass density (400 K, 26382 kPa): 195.77 ± 0.53 kg/m3; mass density (400 K, 26383 kPa): 195.774 ± 0.53 kg/m3; mass density (419.99 K, 6278.6 kPa): 49.2274 ± 0.036 kg/m3 [middle of 5 runs]; mass density (419.99 K, 13587 kPa): 103.001 ± 0.16 kg/m3 and 103.002 ± 0.16 kg/m3; mass density (420 K, 13587 kPa): 103 ± 0.16 kg/m3 and 103.001 ± 0.16 kg/m3 and 103.002 ± 0.16 kg/m3; mass density (420 K, 27876 kPa): 195.057 ± 0.54 kg/m3 and 195.058 ± 0.54 kg/m3 and 195.06 ± 0.54 kg/m3; mass density (420 K, 27877 kPa): 195.065 ± 0.54 kg/m3 and 195.064 ± 0.54 kg/m3; mass density (420 K, 27878 kPa): 195.07 ± 0.54 kg/m3; mass density (439.98 K, 499.5 kPa): 3.8187 ± 0.0032 kg/m3 [middle of 5 runs]; mass density (439.98 K, 999 kPa): 7.6237 ± 0.0036 kg/m3 and 7.6236 ± 0.0036 kg/m3 and 7.6238 ± 0.0036 kg/m3; mass density (439.98 K, 1998 kPa): 15.1913 ± 0.008 kg/m3 and 15.1914 ± 0.008 kg/m3; mass density (439.98 K, 3995.9 kPa): 30.1496 ± 0.015 kg/m3 [middle of 4 runs]; mass density (439.98 K, 5993.9 kPa): 44.8532 ± 0.031 kg/m3 [middle of 4 runs]; mass density (439.99 K, 6571 kPa): 49.0492 ± 0.037 kg/m3; mass density (439.99 K, 6571.1 kPa): 49.0504 ± 0.037 kg/m3 and 49.0497 ± 0.037 kg/m3 and 49.05 ± 0.037 kg/m3; mass density (440 K, 14255 kPa): 102.622 ± 0.16 kg/m3 [middle of 6 runs]; mass density (440 K, 29348 kPa): 194.34 ± 0.54 kg/m3 and 194.342 ± 0.54 kg/m3 and 194.344 ± 0.54 kg/m3; mass density (440 K, 29349 kPa): 194.345 ± 0.54 kg/m3 and 194.347 ± 0.54 kg/m3 and 194.348 ± 0.54 kg/m3; mass density (459.99 K, 6861.3 kPa): 48.8758 ± 0.049 kg/m3 and 48.8757 ± 0.049 kg/m3; mass density (460 K, 6861.3 kPa): 48.8757 ± 0.049 kg/m3 and 48.8759 ± 0.049 kg/m3; mass density (460 K, 6861.4 kPa): 48.8764 ± 0.049 kg/m3; mass density (460 K, 14917 kPa): 102.251 ± 0.16 kg/m3 [middle of 5 runs]; mass density (460 K, 14918 kPa): 102.253 ± 0.16 kg/m3; mass density (460 K, 30809 kPa): 193.675 ± 0.55 kg/m3; mass density (460 K, 30810 kPa): 193.681 ± 0.55 kg/m3 and 193.677 ± 0.55 kg/m3 and 193.678 ± 0.55 kg/m3; mass density (460 K, 30811 kPa): 193.683 ± 0.55 kg/m3; mass density (460 K, 30812 kPa): 193.69 ± 0.55 kg/m3; mass density (479.99 K, 7148.6 kPa): 48.7024 ± 0.049 kg/m3; mass density (479.99 K, 7148.7 kPa): 48.7027 ± 0.049 kg/m3; mass density (480 K, 499.5 kPa): 3.4995 ± 0.0031 kg/m3 [middle of 5 runs]; mass density (480 K, 999 kPa): 6.9854 ± 0.0034 kg/m3 [middle of 5 runs]; mass density (480 K, 1998 kPa): 13.9143 ± 0.0073 kg/m3 [middle of 5 runs]; mass density (480 K, 3996 kPa): 27.6012 ± 0.014 kg/m3 and 27.6015 ± 0.014 kg/m3 and 27.6009 ± 0.014 kg/m3; mass density (480 K, 5994 kPa): 41.0449 ± 0.027 kg/m3 and 41.045 ± 0.027 kg/m3; mass density (480 K, 5994.1 kPa): 41.0449 ± 0.027 kg/m3 and 41.0443 ± 0.027 kg/m3 and 41.045 ± 0.027 kg/m3; mass density (480 K, 7148.6 kPa): 48.7016 ± 0.049 kg/m3 and 48.7015 ± 0.049 kg/m3; mass density (480 K, 7148.7 kPa): 48.7027 ± 0.049 kg/m3; mass density (480 K, 15572 kPa): 101.884 ± 0.16 kg/m3 [middle of 5 runs]; mass density (480 K, 15573 kPa): 101.886 ± 0.16 kg/m3; mass density (480 K, 32254 kPa): 193.025 ± 0.55 kg/m3; mass density (480 K, 32255 kPa): 193.027 ± 0.55 kg/m3 and 193.029 ± 0.55 kg/m3; mass density (480 K, 32256 kPa): 193.032 ± 0.55 kg/m3 and 193.035 ± 0.55 kg/m3; mass density (500 K, 7433.7 kPa): 48.5307 ± 0.048 kg/m3 and 48.5313 ± 0.048 kg/m3; mass density (500 K, 7433.8 kPa): 48.531 ± 0.048 kg/m3 and 48.5323 ± 0.048 kg/m3 and 48.5317 ± 0.048 kg/m3; mass density (500 K, 7433.9 kPa): 48.5314 ± 0.048 kg/m3; mass density (500 K, 16220 kPa): 101.517 ± 0.16 kg/m3 and 101.518 ± 0.16 kg/m3 and 101.519 ± 0.16 kg/m3; mass density (500 K, 16221 kPa): 101.519 ± 0.16 kg/m3 and 101.521 ± 0.16 kg/m3; mass density (500 K, 33681 kPa): 192.377 ± 0.56 kg/m3; mass density (500 K, 33682 kPa): 192.38 ± 0.56 kg/m3 and 192.382 ± 0.56 kg/m3; mass density (500 K, 33683 kPa): 192.384 ± 0.56 kg/m3; mass density (500 K, 33684 kPa): 192.389 ± 0.56 kg/m3; mass density (500 K, 33686 kPa): 192.396 ± 0.56 kg/m3
